Results from PubChem BioAssay (NCI).
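Results reflect a 48-hour exposure of cells in 96-well plates to compound at five concentrations. TGI is the concentration that stops growth completely.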

Tests used:
Test in all cases: NCI tumour cell line growth inhibition, 48 h
[1] = system: KM12 colon
[2] = system: HOP-18 NSCLC
[3] = system: DMS 273 small cell lung
[4] = system: A549 NSCLC
[5] = system: DMS 114 small cell lung
[6] = system: U251 CNS
[7] = system: CCRF-CEM leukemia
[8] = system: BT-549 breast
[9] = system: EKVX NSCLC
[10] = system: OVCAR-4 ovarian
[11] = system: K-562 leukemia
[12] = system: UACC-62 melanoma
[13] = system: HCT-15 colon
[14] = system: LXFL 529 NSCLC
[15] = system: T-47D breast
[16] = system: HCT-116 colon
[17] = system: PC-3 prostate
[18] = system: SK-MEL-5 melanoma
[19] = system: MDA-MB-231 breast
[20] = system: P388 leukemia
[21] = system: A498 renal
[22] = system: SN12K1 renal
[23] = system: HT29 colon
[24] = system: SF-268 CNS
[25] = system: HS 578T breast
[26] = system: UACC-257 melanoma
[27] = system: OVCAR-8 ovarian
[28] = system: COLO 205 colon
[29] = system: SK-OV-3 ovarian
[30] = system: SW-620 colon
[31] = system: P388/ADR leukemia
[32] = system: HL-60(TB) leukemia
[33] = system: RXF 393 renal
[34] = system: NCI-H460 lung
[35] = system: MDA-MB-435
[36] = system: SF-295 CNS
[37] = system: M19-MEL melanoma
[38] = system: KM20L2 colon
[39] = system: SN12C renal
[40] = system: MALME-3M melanoma
[41] = system: LOX IMVI melanoma
[42] = system: CAKI-1 renal
[43] = system: SK-MEL-2 melanoma
[44] = system: DU-145 prostate
[45] = system: NCI/ADR-RES ovarian
[46] = system: SNB-19 CNS
[47] = system: NCI-H226 lung
[48] = system: DLD-1 colon
[49] = system: NCI-H23 lung
[50] = system: TK-10 renal
[51] = system: RPMI-8226 leukemia
[52] = system: HOP-62 NSCLC
[53] = system: SNB-75 CNS
[54] = system: MCF7 breast
[55] = system: SNB-78 CNS
[56] = system: ACHN renal
[57] = system: SR leukemia
[58] = system: IGROV1 ovarian
[59] = system: SK-MEL-28 melanoma
[60] = system: NCI-H522 lung
[61] = system: MDA-N
[62] = system: RXF-631 renal
[63] = system: SF-539 CNS
[64] = system: M14 melanoma
[65] = system: OVCAR-3 ovarian
[66] = system: MOLT-4 leukemia
[67] = system: UO-31 renal
[68] = system: HOP-92 NSCLC
[69] = system: 786-0 renal
[70] = system: HCC-2998 colon
[71] = system: OVCAR-5 ovarian
[72] = system: XF 498 CNS

Compound: CCOC(=O)/C(=C\c1ccccc1)C(=O)CCN1CCOCC1
- TGI [1]: 23.1 µM
- TGI [2]: 28.6 µM
- TGI [3]: 27.3 µM
- TGI [4]: 53.1 µM
- TGI [5]: 14.6 µM
- TGI [6]: 21.6 µM
- TGI [7]: 3.95 µM
- TGI [8]: 33.6 µM
- TGI [9]: 34.7 µM
- TGI [10]: 33.6 µM
- TGI [11]: 4.87 µM
- TGI [12]: 12.5 µM
- TGI [13]: 9.63 µM
- TGI [14]: 3.52 µM
- TGI [15]: 40.5 µM
- TGI [16]: 34.9 µM
- TGI [17]: 24.7 µM
- TGI [18]: 25.3 µM
- TGI [19]: 27.1 µM
- TGI [20]: 3.66 µM
- TGI [21]: 31.1 µM
- TGI [22]: 19.4 µM
- TGI [23]: 25.1 µM
- TGI [24]: 27.8 µM
- TGI [25]: > 100 µM
- TGI [26]: 11 µM
- TGI [27]: 18.4 µM
- TGI [28]: 8.93 µM
- TGI [29]: 50.5 µM
- TGI [30]: 5.19 µM
- TGI [31]: > 21.7 µM
- TGI [32]: 3.38 µM
- TGI [33]: 6.09 µM
- TGI [34]: 30 µM
- TGI [35]: 40.1 µM
- TGI [36]: 38.3 µM
- TGI [37]: 11.8 µM
- TGI [38]: 30.9 µM
- TGI [39]: 19.7 µM
- TGI [40]: 7.85 µM
- TGI [41]: 8.54 µM
- TGI [42]: 9.51 µM
- TGI [43]: 42.4 µM
- TGI [44]: 39.2 µM
- TGI [45]: 32.5 µM
- TGI [46]: 51.5 µM
- TGI [47]: 45.9 µM
- TGI [48]: 6.96 µM
- TGI [49]: 24.9 µM
- TGI [50]: 19.9 µM
- TGI [51]: 6.07 µM
- TGI [52]: 40.8 µM
- TGI [53]: 38.3 µM
- TGI [54]: 23.8 µM
- TGI [55]: 36.5 µM
- TGI [56]: 13.4 µM
- TGI [57]: 9.11 µM
- TGI [58]: 29.9 µM
- TGI [59]: 10.1 µM
- TGI [60]: 3.43 µM
- TGI [61]: 18.7 µM
- TGI [62]: 28.8 µM
- TGI [63]: 16 µM
- TGI [64]: 18 µM
- TGI [65]: 18.6 µM
- TGI [66]: 5.3 µM
- TGI [67]: 31.2 µM
- TGI [68]: 17.2 µM
- TGI [69]: 21.9 µM
- TGI [70]: 32.6 µM
- TGI [71]: 31.8 µM

Compound: COc1cc(/C=C/C(=O)Oc2ccc(NC(C)=O)cc2)ccc1C(=O)OCc1ccccc1
- TGI [1]: > 100 µM
- TGI [2]: > 100 µM
- TGI [3]: > 100 µM
- TGI [4]: > 100 µM
- TGI [5]: > 100 µM
- TGI [6]: > 78.7 µM
- TGI [7]: > 100 µM
- TGI [8]: > 100 µM
- TGI [9]: > 100 µM
- TGI [10]: > 100 µM
- TGI [11]: > 100 µM
- TGI [12]: > 97.1 µM
- TGI [13]: > 100 µM
- TGI [14]: > 100 µM
- TGI [15]: > 100 µM
- TGI [16]: > 100 µM
- TGI [17]: > 100 µM
- TGI [18]: > 100 µM
- TGI [19]: > 100 µM
- TGI [20]: > 100 µM
- TGI [21]: > 100 µM
- TGI [22]: > 100 µM
- TGI [23]: > 100 µM
- TGI [24]: > 100 µM
- TGI [25]: > 100 µM
- TGI [26]: > 100 µM
- TGI [27]: > 100 µM
- TGI [28]: > 100 µM
- TGI [29]: > 92 µM
- TGI [30]: > 100 µM
- TGI [31]: > 100 µM
- TGI [32]: > 100 µM
- TGI [33]: 58.3 µM
- TGI [34]: > 100 µM
- TGI [35]: > 100 µM
- TGI [36]: > 89.3 µM
- TGI [37]: > 100 µM
- TGI [38]: > 100 µM
- TGI [39]: > 100 µM
- TGI [40]: > 100 µM
- TGI [41]: > 100 µM
- TGI [42]: > 100 µM
- TGI [43]: 99.8 µM
- TGI [44]: > 100 µM
- TGI [45]: > 100 µM
- TGI [72]: > 70.2 µM
- TGI [46]: > 91.2 µM
- TGI [47]: > 100 µM
- TGI [48]: > 100 µM
- TGI [49]: > 100 µM
- TGI [50]: > 100 µM
- TGI [51]: > 100 µM
- TGI [52]: > 91.3 µM
- TGI [53]: 47.6 µM
- TGI [54]: > 100 µM
- TGI [55]: > 89.4 µM
- TGI [56]: > 100 µM
- TGI [57]: > 100 µM
- TGI [58]: > 93.2 µM
- TGI [59]: > 100 µM
- TGI [60]: > 100 µM
- TGI [61]: > 100 µM
- TGI [63]: 60.8 µM
- TGI [64]: > 100 µM
- TGI [65]: > 100 µM
- TGI [66]: > 100 µM
- TGI [67]: > 100 µM
- TGI [68]: > 100 µM
- TGI [69]: > 100 µM
- TGI [70]: > 100 µM
- TGI [71]: > 100 µM
